Results from patent US20240122847A1, “ORAL POLYPEPTIDE FORMULATIONS” (Bhami's Research Laboratory, Pvt. Ltd., priority 2022, published 2024).
Like-named read-outs stand apart in the source and are kept apart here.

Tests used:
[1] = minipig, in vivo
Procedure: (§1) Pharmacokinetic analysis was conducted in Female Minipigs weighing 12±1 kg for 2 days. Pigs in the oral treatment group was either fasted overnight or fed prior to the test sample administration. All the test animals in the treatment groups were administered with respective test formulation to the pre-designated animals. The animal was restrained and its head was held vertically, the jaws were pulled away, the tongue was gently lifted with a forceps followed by placement of a polypeptide formulation as described herein buccally/sublingually. After placing a polypeptide formulation as described herein, the snout was held together for about 1-2 mins to prevent the chewing of the polypeptide formulation. The time of dosage of each animal was noted. Blood samples were collected at aforementioned time points 0 min, 5 min, 30 min, 1 hour, 2 hours, 4 hours, 8 hours, and 24 hours into an EDTA-blood collection tubes for the separation of plasma to determine PTH (1-34) levels by ELISA. Plasma samples collected at different time points were analyzed by ELISA kit according to Creative Diagnostics protocol. This kit is based on sandwich enzyme-linked immuno-sorbent assay technology. An antibody, anti-PTH (1-34) was pre-coated onto a 96-well plate. Standards, test samples, and biotin-conjugated reagent were added to the wells and incubated. The HRP-conjugated reagent was then added, and the whole plate was incubated. Unbound conjugates were removed using wash buffer at each stage. TMB substrate was used to quantify the HRP enzymatic reaction. After TMB substrate was added, only wells that contain sufficient PTH (1-34) will produce a blue colored product, which then changes to yellow after adding the acidic stop solution. The intensity of the yellow color is proportional to the PTH (1-34) amount bound on the plate. The Optical Density (OD) was measured spectrophotometrically at 450 nm in a microplate reader, from which the concentration of PTH (1-34) can be calculated.
(§2) PTH (1-34) was analyzed in plasma using a specific enzyme linked immunosorbent assay (ELISA). Pharmacokinetic endpoints were determined using noncompartmental methods using PK Solutions software. AUC was approximated using the trapezoidal rule on the observed concentrations. C max for each PTH (1-34) dose was derived as the maximum of all valid concentrations, and t max was then determined as the corresponding time point to C max. The terminal elimination rate constant (λz) was estimated by log-linear regression on the terminal part of the concentration-time curve, and t ½ was then calculated as t ½=ln 2/λz.

[2] = Pharmacokinetics of PTH (1-34) in minipigs, sugar truffle buccal/sublingual vs SC, plasma PTH (1-34) ELISA; details: for AUC(0-inf) / AUC 0-t / AUC(t-inf) extrapolated / MRT inf / AUMC 0-inf_obs / AUMC 0-inf_pred / AUMC 0-t / AUMC t-inf_obs / AUMC t-inf_pred / Clast_obs / Clast_pred / Lambda_z / Tlag / Tlast: minipigs; for Mean PTH (1-34) levels: pigs, GII - Buccal/sublingual 0.49 mg
Procedure: as §1, §2

[3] = Pharmacokinetics of PTH (1-34) in SD rats, sugar truffle buccal/sublingual vs SC, plasma PTH (1-34) ELISA
Procedure: (§3) Pharmacokinetic analysis was conducted in female rats weighing 220-250 grams for 2 days. Rats in the oral treatment group was either fasted overnight or fed prior to the test sample administration. All the test animals in the treatment groups were administered with respective test formulation to the pre-designated animals. The animal was restrained and its head was held vertically, the jaws were pulled away, the tongue was gently lifted with a forceps followed by placement of a polypeptide formulation as described herein buccally/sublingually. After placing a polypeptide formulation as described herein, the snout was held together for about 1-2 mins to prevent the chewing of the polypeptide formulation. The time of dosage of each animal was noted. Blood samples were collected at aforementioned time points 0 min, 15 min, 30 min, 1 hour, 2 hours, 4 hours, 8 hours, 12 hours, 24 hours, and 48 hours into an EDTA-blood collection tubes for the separation of plasma to determine PTH (1-34) levels by ELISA. Plasma samples collected at different time points were analyzed by ELISA kit according to Creative Diagnostics protocol. This kit is based on sandwich enzyme-linked immuno-sorbent assay technology. An antibody, anti-PTH (1-34) was pre-coated onto a 96-well plate. Standards, test samples, and biotin-conjugated reagent were added to the wells and incubated. The HRP-conjugated reagent was then added, and the whole plate was incubated. Unbound conjugates were removed using wash buffer at each stage. TMB substrate was used to quantify the HRP enzymatic reaction. After TMB substrate was added, only wells that contain sufficient PTH (1-34) will produce a blue colored product, which then changes to yellow after adding the acidic stop solution. The intensity of the yellow color is proportional to the PTH (1-34) amount bound on the plate. The Optical Density (OD) was measured spectrophotometrically at 450 nm in a microplate reader, from which the concentration of PTH (1-34) can be calculated.
as §2

[4] = rat, in vivo, sc, 0.04 mg
Procedure: as §3, §2

[5] = female, Yorkshire, minipig, plasma, 0.49 mg
[6] = female, Yorkshire, minipig, plasma, sc, 0.04 mg
[7] = female, SD, rat, plasma, 0.49 mg
[8] = female, SD, rat, plasma, sc, 0.04 mg

In the case of CC[C@H](C)[C@H](NC(=O)[C@H](CCC(=O)O)NC(=O)[C@H](CO)NC(=O)[C@@H](NC(=O)[C@@H](N)CO)C(C)C)C(=O)N[C@@H](CCC(N)=O)C(=O)N[C@@H](CC(C)C)C(=O)N[C@@H](CCSC)C(=O)N[C@@H](Cc1cnc[nH]1)C(=O)N[C@@H](CC(N)=O)C(=O)N[C@@H](CC(C)C)C(=O)NCC(=O)N[C@@H](CCCCN)C(=O)N[C@@H](Cc1cnc[nH]1)C(=O)N[C@@H](CC(C)C)C(=O)N[C@@H](CC(N)=O)C(=O)N[C@@H](CO)C(=O)N[C@@H](CCSC)C(=O)N[C@@H](CCC(=O)O)C(=O)N[C@@H](CCCN=C(N)N)C(=O)N[C@H](C(=O)N[C@@H](CCC(=O)O)C(=O)N[C@@H](Cc1c[nH]c2ccccc12)C(=O)N[C@@H](CC(C)C)C(=O)N[C@@H](CCCN=C(N)N)C(=O)N[C@@H](CCCCN)C(=O)N[C@@H](CCCCN)C(=O)N[C@@H](CC(C)C)C(=O)N[C@@H](CCC(N)=O)C(=O)N[C@@H](CC(=O)O)C(=O)N[C@H](C(=O)N[C@@H](Cc1cnc[nH]1)C(=O)N[C@@H](CC(N)=O)C(=O)N[C@@H](Cc1ccccc1)C(=O)O)C(C)C)C(C)C [PTH (1-34)], the “AUC 0-inf/D_obs” value ([1]; 0.49 mg) is reported as 13610.915 pg·h/mL/mg, the “AUC 0-inf/D_pred” value ([1]; 0.49 mg) is reported as 13604.805 pg·h/mL/mg and the “AUC 0-t/0-inf_obs” value ([1]; 0.49 mg) is reported as 0.996. The “AUC 0-t/0-inf_pred” value ([1]; 0.49 mg) was 0.997, the Clast_obs/Cmax ([1]; 0.49 mg) was 0.005 and the Clast_pred/Cmax ([1]; 0.49 mg) was 0.005. For the same molecule, the “AUC 0-inf/D_obs” value ([1]; sc, 0.04 mg) was 240.561 pg·h/mL/µg, the “AUC 0-inf/D_pred” value ([1]; sc, 0.04 mg) was 240.495 pg·h/mL/µg and the “AUC 0-t/0-inf_obs” value ([1]; sc, 0.04 mg) was 0.996. The “AUC 0-t/0-inf_pred” value ([1]; sc, 0.04 mg) was 0.996, the Cl/F_obs ([1]; sc, 0.04 mg) was 0.004 (μg)/(pg/mL)/h and the Cl/F_pred ([1]; sc, 0.04 mg) was 0.004 (μg)/(pg/mL)/h. The Clast_obs/Cmax ([1]; sc, 0.04 mg) was 0.002, the Clast_pred/Cmax ([1]; sc, 0.04 mg) was 0.002 and the Vz/F_obs ([1]; sc, 0.04 mg) was 0.027 (μg)/(pg/mL). For the same molecule, the Vz/F_pred ([1]; sc, 0.04 mg) was 0.027 (μg)/(pg/mL), the Cmax [2, 5] was 3290 pg/mL and the MRT last [2, 5] was 1.35 h. The Tmax [2, 5] was 0.08 h, the half-life [2, 5] was 0.977 h and the level at 5 min [2, 5] was 3290 pg/mL. The level at 0.5 h [2, 5] was 3040 pg/mL, the level at 1 h [2, 5] was 2610 pg/mL and the level at 2 h [2, 5] was 1240 pg/mL. It also gave a level at 4 h [2, 5] of 189 pg/mL, a level at 8 h [2, 5] of 17.8 pg/mL and an AUC(0-inf) ([2]; female, Yorkshire, minipig, plasma, 0.49 mg, AUC 0-inf_obs, buccal/sublingual) of 6.67 ng·h/mL. For the same molecule, the AUC(0-inf) ([2]; female, Yorkshire, minipig, plasma, 0.49 mg, AUC 0-inf_pred, buccal/sublingual) was 6.67 ng·h/mL, the AUC 0-t ([2]; female, Yorkshire, minipig, plasma, 0.49 mg, buccal/sublingual) was 6.64 ng·h/mL and the AUC(t-inf) extrapolated ([2]; female, Yorkshire, minipig, plasma, 0.49 mg, AUC t-inf_obs, buccal/sublingual) was 0.025 ng·h/mL. The AUC(t-inf) extrapolated ([2]; female, Yorkshire, minipig, plasma, 0.49 mg, AUC t-inf_pred, buccal/sublingual) was 0.022 ng·h/mL, the MRT inf ([2]; female, Yorkshire, minipig, plasma, 0.49 mg, MRT 0-inf_obs, buccal/sublingual) was 1.39 h and the MRT inf ([2]; female, Yorkshire, minipig, plasma, 0.49 mg, MRT 0-inf_pred, buccal/sublingual) was 1.38 h. It also gave a bioavailability ([2]; female, Yorkshire, minipig, plasma, other: buccal/sublingual, 0.49 mg) of 6%, a Cmax [2, 6] of 3280 pg/mL and an MRT last [2, 6] of 2.02 h. For the same molecule, the Tmax [2, 6] was 0.5 h, the half-life [2, 6] was 4.55 h and the level at 0 h [2, 6] was 0.002 pg/mL. For the same molecule, the level at 5 min [2, 6] was 394 pg/mL, the level at 0.5 h [2, 6] was 3280 pg/mL and the level at 1 h [2, 6] was 3260 pg/mL. It also gave a level at 2 h [2, 6] of 2990 pg/mL, a level at 4 h [2, 6] of 164 pg/mL and a level at 8 h [2, 6] of 50 pg/mL. The level at 24 h [2, 6] was 6.43 pg/mL, the AUC(0-inf) ([2]; female, Yorkshire, minipig, plasma, sc, 0.04 mg, AUC 0-inf_obs) was 9.62 ng·h/mL and the AUC(0-inf) ([2]; female, Yorkshire, minipig, plasma, sc, 0.04 mg, AUC 0-inf_pred) was 9.62 ng·h/mL. It also gave an AUC 0-t [2, 6] of 9.58 ng·h/mL, an AUC(t-inf) extrapolated ([2]; female, Yorkshire, minipig, plasma, sc, 0.04 mg, AUC t-inf_obs) of 0.0423 ng·h/mL and an AUC(t-inf) extrapolated ([2]; female, Yorkshire, minipig, plasma, sc, 0.04 mg, AUC t-inf_pred) of 0.0396 ng·h/mL. For the same molecule, the MRT inf ([2]; female, Yorkshire, minipig, plasma, sc, 0.04 mg, MRT 0-inf_obs) was 2.15 h, the MRT inf ([2]; female, Yorkshire, minipig, plasma, sc, 0.04 mg, MRT 0-inf_pred) was 2.14 h and the “AUMC 0-inf_obs” value ([2]; SC, 0.04 mg) was 20668.040 pg/mL*h^2. The “AUMC 0-inf_pred” value ([2]; SC, 0.04 mg) was 20587.700 pg/mL*h^2, the “AUMC 0-t” value ([2]; SC, 0.04 mg) was 19375.595 pg/mL*h^2 and the “AUMC t-inf_obs” value ([2]; SC, 0.04 mg) was 1292.445 pg/mL*h^2. For the same molecule, the “AUMC t-inf_pred” value ([2]; SC, 0.04 mg) was 1212.104 pg/mL*h^2, the Clast_obs ([2]; SC, 0.04 mg) was 6.435 pg/mL and the Clast_pred ([2]; SC, 0.04 mg) was 6.035 pg/mL. The Lambda_z ([2]; SC, 0.04 mg) was 0.152 h⁻¹, the Tlag ([2]; SC, 0.04 mg) was 0.000 h and the Tlast ([2]; SC, 0.04 mg) was 24.000 h. For the same molecule, the “AUMC 0-inf_obs” value ([2]; buccal/sublingual, 0.49 mg) was 9236.909 pg/mL*h^2, the “AUMC 0-inf_pred” value ([2]; buccal/sublingual, 0.49 mg) was 9208.738 pg/mL*h^2 and the “AUMC 0-t” value ([2]; buccal/sublingual, 0.49 mg) was 9001.303 pg/mL*h^2. The “AUMC t-inf_obs” value ([2]; buccal/sublingual, 0.49 mg) was 235.606 pg/mL*h^2, the “AUMC t-inf_pred” value ([2]; buccal/sublingual, 0.49 mg) was 207.435 pg/mL*h^2 and the Clast_obs ([2]; buccal/sublingual, 0.49 mg) was 17.765 pg/mL. It also gave a Clast_pred ([2]; buccal/sublingual, 0.49 mg) of 15.641 pg/mL, a Lambda_z ([2]; buccal/sublingual, 0.49 mg) of 0.709 h⁻¹ and a Tlag ([2]; buccal/sublingual, 0.49 mg) of 0.000 h. The Tlast ([2]; buccal/sublingual, 0.49 mg) was 8.000 h, the “Mean PTH (1-34) levels” value ([2]; 0 min) was 0.000 pg/mL and the “Mean PTH (1-34) levels” value ([2]; 24 hour) was 0.000 pg/mL. The level at 5 min [3, 7] was 3510 pg/mL, the level at 0.5 h [3, 7] was 3070 pg/mL and the level at 1 h [3, 7] was 2870 pg/mL. The level at 2 h [3, 7] was 1630 pg/mL, the level at 4 h [3, 7] was 214 pg/mL and the level at 8 h [3, 7] was 33.7 pg/mL. It also gave a level at 24 h [3, 7] of 6.02 pg/mL, a bioavailability ([3]; female, SD, rat, plasma, other: buccal/sublingual, 0.49 mg) of 7% and an MRT last [3, 8] of 2.02 h. For the same molecule, the Tmax [3, 8] was 0.5 h, the half-life [3, 8] was 4.46 h and the level at 0 h [3, 8] was 0.002 pg/mL. For the same molecule, the level at 5 min [3, 8] was 403 pg/mL, the level at 0.5 h [3, 8] was 3400 pg/mL and the level at 1 h [3, 8] was 3270 pg/mL. It also gave a level at 2 h [3, 8] of 2930 pg/mL, a level at 4 h [3, 8] of 167 pg/mL and a level at 8 h [3, 8] of 50.9 pg/mL. The level at 24 h [3, 8] was 6.2 pg/mL, the AUC(0-inf) ([3]; female, SD, rat, plasma, sc, 0.04 mg, AUC 0-inf_obs, rats) was 9.61 ng·h/mL and the AUC(0-inf) ([3]; female, SD, rat, plasma, sc, 0.04 mg, AUC 0-inf_pred, rats) was 9.61 ng·h/mL. The AUC 0-t ([3]; female, SD, rat, plasma, sc, 0.04 mg, AUC 0-t, rats) was 9.57 ng·h/mL, the AUC(t-inf) ([3]; female, SD, rat, plasma, sc, 0.04 mg, AUC t-inf_obs, rats) was 0.0399 ng·h/mL and the AUC(t-inf) ([3]; female, SD, rat, plasma, sc, 0.04 mg, AUC t-inf_pred, rats) was 0.0375 ng·h/mL. For the same molecule, the MRT inf ([3]; female, SD, rat, plasma, sc, 0.04 mg, MRT 0-inf_obs, rats) was 2.13 h, the MRT inf ([3]; female, SD, rat, plasma, sc, 0.04 mg, MRT 0-inf_pred, rats) was 2.13 h and the “Mean PTH (1-34) levels” value ([3]; rats, GII - Buccal/sublingual 0.49 mg, 0 min) was 0.000 pg/mL. For the same molecule, the “AUMC 0-inf_obs” value ([3]; rats, SC, 0.04 mg) was 20516.940 pg/mL*h^2, the “AUMC 0-inf_pred” value ([3]; rats, SC, 0.04 mg) was 20442.395 pg/mL*h^2 and the “AUMC 0-t” value ([3]; rats, SC, 0.04 mg) was 19300.931 pg/mL*h^2. For the same molecule, the “AUMC 0-t/0-inf_obs” value ([3]; rats, SC, 0.04 mg) was 0.941, the “AUMC 0-t/0-inf_pred” value ([3]; rats, SC, 0.04 mg) was 0.944 and the “AUMC t-inf_obs” value ([3]; rats, SC, 0.04 mg) was 1216.009 pg/mL*h^2. For the same molecule, the “AUMC t-inf_pred” value ([3]; rats, SC, 0.04 mg) was 1141.464 pg/mL*h^2, the Clast_obs ([3]; rats, SC, 0.04 mg) was 6.201 pg/mL and the Clast_pred ([3]; rats, SC, 0.04 mg) was 5.821 pg/mL. For the same molecule, the Cmax ([3]; rats, SC, 0.04 mg) was 3401.092 pg/mL, the Lambda_z ([3]; rats, SC, 0.04 mg) was 0.155 h⁻¹ and the Tlag ([3]; rats, SC, 0.04 mg) was 0.000 h. The Tlast ([3]; rats, SC, 0.04 mg) was 24.000 h, the “AUC 0-inf/D_obs” value [4] was 480.625 pg·h/mL/µg and the “AUC 0-inf/D_pred” value [4] was 480.502 pg·h/mL/µg. For the same molecule, the Cl/F_obs [4] was 0.002 (μg)/(pg/mL)/h, the Cl/F_pred [4] was 0.002 (μg)/(pg/mL)/h and the Vz/F_obs [4] was 0.013 (μg)/(pg/mL). The Vz/F_pred [4] was 0.013 (μg)/(pg/mL).
